In BindingDB's records for doi:10.1016/j.bmcl.2012.05.114 (Vertex Pharmaceuticals, 2012):

Molecular target: Tyrosine-protein kinase SYK (Homo sapiens) (UniProt P43405)
Test: Inhibition of SYK

## CC(C)C[C@H]1CN(c2ccc(C(F)(F)F)c(C(=O)c3cccnc3N)n2)CCN1
  Ki: > 4 µM
